Experimental data from patent US20210046125A1, “DECELLULARIZED TISSUES, HYDROGELS THEREOF, AND USES THEREOF” (UNIVERSITY OF FLORIDA RESEARCH FOUNDATION, priority 2018, published 2021).

Columns and labels:
peripheral nerve tissue [1] = assay: Picogreen DNA assay, total DNA content of apoptosis-decellularized peripheral nerve; set-up: species or system Sprague Dawley rats
Experimental: Peripheral nerves were harvested from Sprague Dawley rats and decellularized according to an apoptosis-assisted protocol using 5 μM camptothecin in non-supplemented media at 37° C. for 1 day. Tissue in media without camptothecin, an apoptotic agent, was used as a control. Apoptotic agent treatment was succeeded by washes in saline buffered solutions to optimize cell removal. Furthermore, the tissue was treated with 75 u/mL DNAse for 24 hours to ensure DNA removal. The degree of apoptosis, cellular removal, and matrix preservation was assessed using immunochemistry on nerve tissue sections and fluorescence imaging (FIG. 2). Antibodies used to identify apoptosis, cell removal, and tissue preservation include those against active caspase 3 (Abcam); neurofilament (RT-97, DSHB) and 5100 (Dako); and laminin (Sigma), respectively. […] FIGS. 2B and 2C show nerves treated with 5 μM for 1 day, washed with a hypertonic, and either washed with a […] or treated for 24 hours with DNAse, respectively. […] FIGS. 2E and 2F show treatment with higher camptothecin (10 μM), again for 1 day, and washed similarly to tissue in FIGS. 2B and 2C. These images depict 1) apoptosis induction is necessary prior to washing to effectively remove cellular components and 2) combing apoptosis induction with washes in non-isotonic solutions achieves cellular removal of peripheral nerve tissue. Total DNA content was quantified using a Picogreen DNA assay (Life Technologies) according to manufacturer's instructions.

peripheral nerve tissue [2] = assay: Induction of apoptosis ex vivo (active caspase 3 immunochemistry, TUNEL); set-up: species or system Sprague Dawley rats; settings: 10 μM camptothecin, 37° C., 2 days
Experimental: Peripheral nerves were harvested from Sprague Dawley rats and decellularized according to an apoptosis-assisted protocol using 10 μM camptothecin in non-supplemented media at 37° C. for 2 days. Tissue in media without camptothecin was used as a control. Apoptotic agent treatment was succeeded by washes in saline buffered solutions to optimize cell removal. The degree of apoptosis, cellular removal, and matrix preservation was assessed using immunochemistry on nerve tissue sections and fluorescence imaging. Antibodies used to identify apoptosis, cell removal, and tissue preservation include those against active caspase 3 (Abcam); neurofilament (RT-97, DSHB) and 5100 (Dako); and laminin (Sigma), respectively, Apoptosis-mediated DNA fragmentation was assessed using a terminal deoxynucleotidyl transferase dUTP nick end labeling (TUNEL) assay. Total DNA content was quantified using a Picogreen DNA assay (Life Technologies) according to manufacturer's instructions. […] For FIGS. 5A and 5B, the images are fresh nerve (top half) and apoptosis decellularized nerve (bottom half). FIG. 5A was labeled for neurons (neurofilament, green), Schwann cells (S100, red), and nuclei (DAPI, blue). […] Induction of apoptosis was confirmed in treated nerve tissue by an increase in active caspase 3, an early mediator of apoptosis. […]

rat sciatic nerve [3] = assay: QuantiFluor dsDNA assay, residual DNA content in tissue; settings: apoptosis decellularization, QuantiFluor dsDNA kit
Description: (§1) Briefly, the injectable tissue hydrogels of this Example were generated by digesting rat sciatic nerves that had been decellularized by inducing cell […] (or apoptosis). Apoptosis can cause cells to form small apoptotic bodies containing cellular components, which can be more easily removed from the matrix. This approach has the potential to enhance matrix preservation and bioactivity, thus having a major impact on tissue engineering. In this Example, rat sciatic nerves were first harvested and decellularized by inducing apoptosis (described elsewhere herein and e,g. FIG. 11). Washing in camptothecin can induce apoptosis. Hypertonic washing (e,g. 4× PBS) can aid in cell removal. DNase treatment can degrade residual DNA content. Treatment with Chondroitinase ABC can be used to remove inhibitory proteoglycans. After the decellularization process, the resulting decellularized tissue can undergo enzymatic processing and further processing to balance pH where necessary. In some cases the decellularized tissue can be lyophilized prior to enzymatic digestion. In this particular example, pepsin was used to digest tissue at an acidic pH. After about […] of enzymatic digestion, the solution can be neutralized and isotonically balanced. The solution was further diluted with PBS. In some embodiments, the solution was diluted to 1/9 th of its volume in 10× PBS. […]

rat sciatic nerve [4] = assay: TUNEL assay, preliminary studies; settings: samples treated with camptothecin
Description: as §1

## CC[C@@]1(O)C(=O)OCc2c1cc1n(c2=O)Cc2cc3ccccc3nc2-1 [camptothecin]
Peripheral nerve tissue [1]; 5 μM camptothecin 1 day, hypertonic then hypotonic wash
  reduction in DNA compared to fresh nerve: 71.9%
Peripheral nerve tissue [1]; 5 μM camptothecin 1 day, hypotonic wash replaced with DNAse treatment
  reduction in DNA compared to fresh nerve: 95.1%
Peripheral nerve tissue [1]; 10 μM camptothecin 1 day, hypertonic then hypotonic wash
  reduction in DNA compared to fresh nerve: 57.3%
Peripheral nerve tissue [1]; 10 μM camptothecin 1 day, hypotonic wash replaced with DNAse treatment
  reduction in DNA compared to fresh nerve: 95.8%
Peripheral nerve tissue [2]
  apoptosis ex vivo (caspase 3 activation and DNA fragmentation): sufficient to elicit aspects of apoptosis ex vivo
Rat sciatic nerve [3]
  DNA removal: greater than 90%
Rat sciatic nerve [4]
  apoptosis by TUNEL assay: enhanced apoptosis
